Laboratory results from patent publication US7381733B2, “Tropane derivatives having dopamine reuptake inhibitor activity for the treatment of ischemic diseases” (Neurosearch A/S, priority 2001, dated 2008).

Tested on: TH positive cells in the substantia nigra
Assay: Protection of the substantia nigra after transient global ischaemia in gerbils (TH positive cell count)
Type: in vivo, Mongolian gerbils
Conditions: 2 mg/kg i.p. 2 minutes after end of occlusion
Protocol: Protection of the Substantia Nigra after Transient Global Ischaemia in Gerbils
In this experiment, the neuroprotective effect of a test compound is assessed in an animal model of transient global ischaemia.
Method: In halothane anaesthetised gerbils, right and left carotid arteries are located and occluded for 10 minutes. Animals are kept at normal body temperature before and after the operation using heating lamps. During surgery, the gerbils are placed on heating pads, the body temperature is controlled and maintained at 37±0.5° C. The test compound is dosed at specified time points after the ischaemic insult, either i.v., i.p., s.c. or p.o.
Fourteen days later, the animals are sacrificed, brains removed and cooled to −70° C. Thereafter, the brains are sectioned in 20 μm thick sections through the substantia nigra region. Sections are stained for tyroxine hydroxylase (TH+) expression using immunohistochemistry. The number of TH+ cells in the sections is counted and the total number of TH+ cells in the substantia nigra is calculated by means of stereology. […]
After 14 days, the animals were sacrificed and the brains sectioned. […] The total number of TH positive cells after ischemia or in control animals were determined by means of stereological cell counting.

CON=C[C@@H]1[C@@H](c2ccc(Cl)c(Cl)c2)CC2CC[C@H]1N2C [test compound, (1R,2R,3S)-3-(3,4-dichlorophenyl)-tropane-2-O-methyl-aldoxime]
Mean number of cells (total number of TH positive cells in the substantia nigra) (10 min bilateral carotid artery occlusion, counted after 14 days by stereology, control 9531, ischemia 7510): 10615 cells | number of surviving TH positive cells in the substantia nigra after ischemia, compared with untreated ischemia (10 min carotid artery occlusion, 14 days): apparently increased
